Entries after “also recorded” stand apart in the source; their conditions may differ.

Assay [1] has as its system linearized pBR322 DNA. Briefly: DNA alkylation assay (electrophoretic gel assay) with linearized pBR322 DNA. It is filed as biochemical. The settings on record: 37° C.; for DNA cross-linking: 10 μM. The protocol: FIG. 17 A. DNA alkylation assay employing linearized pBR322 DNA and the pyridone derivatives 17a or 17b or the unsaturated imines 15a or 15b. Conditions: Linearized pBR322 DNA (20 μM in base pairs (bps)), 15a (100, 10, 1, 0.5, or 0.1 μM), 15b (500, 100, 10, or 1 μM), 17a (500 or 100 μM) or 17b (500 or 100 μM), 37° C., 15 h. Cisplatin (CP; 100 μM) and methyl methanesulfonate (MMS; 500, 100, or 10 μM) were used as positive controls for DNA cross-linking and alkylation, respectively. DNA was visualized using SybrGold. B. DNA alkylation assay employing linearized pBR322 DNA and the unsaturated imine 15a. Conditions: Linearized pBR322 DNA (20 μM in base pairs), 15a (100, 10, 1, 0.1, 0.05, 0.01, or 0.005 μM), 37° C., 15 h.
FIG. 19 A. Structures of the dimer 15c and the gem-dimethyl derivative 15d. B. DNA alkylation assay employing linearized pBR322 DNA and the dimer 15c or the gem-dimethyl derivative 15d. Conditions: Linearized pBR322 DNA (20 μM in base pairs), 15c (10 μM) or 15d (500 or 100 μM), 37° C., 0.1-15 h.
B. DNA alkylation assay employing linearized pBR322 DNA and the unsaturated lactam 19 or the unsaturated imine 15j. Conditions: Linearized pBR322 DNA (20 μM in base pairs), 19 (500, 100, 10, or 1 μM) or 15j (500, 100, 10, or 1 μM), 37° C., 15 h.
Conditions: Linearized pBR322 DNA (20 μM in base pairs), 15h (1, 0.1, or 0.01 μM), 15i (1, 0.1, or 0.01 μM), 15f (1, 0.1, or 0.01 μM), 15g (1, 0.1, or 0.01 μM), 15a (1, 0.1, or 0.01 μM), 15e (1, 0.1, or 0.01 μM), 37° C., 15 h. Methyl methanesulfonate (MMS; 500 or 100 μM) was used as a positive control for DNA alkylation. DNA was visualized using SybrGold.
The activity of 15a, 15b, 17a, and 17b was evaluated in a DNA alkylation assay. Plasmid pBR322 DNA was treated with EcoRI-HF in Cutsmart buffer, and the resulting linearized DNA was incubated with 15a, 15b, 17a, or 17b for 15 h at 37° C. The DNA was then denatured, and the sample was eluted on a 1% neutral agarose gel. DNA was visualized with SybrGold. Cisplatin (CP, 100 μM) and methyl methanesulfonate (MMS, 500, 100, or 10 μM) were used as positive controls for DNA cross-linking and alkylation, respectively. […] The streaking of DNA induced by 15a and 15b parallels that observed with 500 μM of MMS and derives from the presence of shorter DNA strands that are formed by thermal or alkaline denaturation of extensively-alkylated (or in the case of MMS, methylated) DNA.^16 Further evidence for direct alkylation by 15a and 15b is presented in the cross-linking study outlined below.
The […] plasmid pBR322 was propogated in DH5a, isolated by MaxiPrep (Qiagen), and linearized with 5 U/μg EcoRI (NEB). The cut plasmid was column purified and eluted into 10 mM Tris pH 8.0. For each reaction, 130 ng of DNA (20 μM base pairs) was incubated with compound in a 10 μL total volume. Reactions proceeded for 15 h at 37° C., unless otherwise noted. Compounds were diluted in DMSO such that each reaction consisted of a fixed 5% DMSO concentration. Pure MMS (Alfa Aesar) and cisplatin (Biovision) stock solutions were diluted into DMSO immediately prior to use. After incubation, 35 μL of denaturation buffer (6% sucrose, 1% sodium hydroxide, 0.04% bromophenol blue) was added to each reaction. Non-denatured control samples were diluted with 6% sucrose, 0.04% bromophenol blue. Samples were vortexed for 1 min, left at room temperature for 15 min, and then immediately frozen at −80° C. Thawed samples were then loaded onto a 1% agarose Tris-Borate-EDTA (TBE) gel stained with SybrGold (Molecular Probes) and run in TBE buffer for 1 hour at 120V.

Assay [2] has as its system calf thymus DNA (ctDNA). Briefly: DNA melting temperature analysis (UV thermal denaturation). It is filed as binding. The procedure:
Conditions: 2.09 mM NaH2PO4, 7.13 mM Na2HPO4, 928 μM Na2EDTA, 1.01 mM DMSO, pH 7.18. The imine 15a was incubated with ctDNA for 5 min, 1 h, 3 h, 6 h, or 15 h prior to UV thermal denaturation experiments (260 nm, heating rate: 0.5° C./min). [DNA]=32.0 mM bps. The Tm was defined as the temperature at which half of the duplex DNA was unwound, and was determined by the maximum of the first derivative of the thermal denaturation profile.
Conditions: 2.09 mM NaH2PO4, 7.13 mM Na2HPO4, 928 μM Na2EDTA, 1.01 mM DMSO, pH 7.18. The pyridone 17a was incubated with ctDNA for 3 h prior to UV thermal denaturation experiments (260 nm, heating rate: 0.5° C./min). [DNA]=32.0 mM bps. The Tm was defined as the temperature at which half of the duplex DNA was unwound, and was determined by the maximum of the first derivative of the thermal denaturation profile.
A DNA melting temperature analysis was conducted to determine if the variance in DNA alkylation activity between the pyridones and the unsaturated imines was due to differences in DNA binding affinity. The hyperchromicity of calf thymus DNA (ctDNA) with increasing temperature was measured at 260 nm in the presence of varying concentrations of 15a or 17a. The Tm was defined as the temperature at which half of the duplex DNA was unwound and was determined by the maximum of the first derivative of the thermal denaturation profile. […] The inventors hypothesized that this was due to an initial binding of 15a to the duplex followed by slow alkylation and degradation. To probe this, they repeated the plasmid alkylation assay using 15a and evaluated the extent of DNA alkylation as a function of time.
UV thermal denaturation samples were prepared by mixing calf thymus DNA [32.0 mM base pairs (bps)] in 2.09 mM NaH2PO4, 7.13 mM Na2HPO4, 928 μM Na2EDTA, 1.01 mM DMSO, pH 7.18 to a final volume of 1.0 mL. Samples were subjected to sonication (6 h) at 25° C. to effect complete dissolution. After incubation with 15a, 15b, 17a, and 17b for 5 min, 1 h, 3 h, 6 h, or 15 h, the UV thermal denaturation spectra of the samples were recorded at 260 nm as a function of temperature (55→80° C., heating rate: 0.5° C./min). First derivative plots were used to determine the denaturation temperature.

The subject of assay [3] is colibactin peptidase ClbP. The settings on record: earlier publication (ref. 10); cited from earlier work.
Assay [4] relates to colibactin peptidase ClbP. The assay can be described thus: LC-HRMS analysis for the in vivo cleavage of synthetic 6 by ClbP. It is filed as cell-based. The conditions noted are these: 50 μM in E. coli DH10B pClbP culture, 37° C., 24 h. The procedure: E. coli DH10B pClbP (pPEB018) and the bacteria harboring the empty vector pBAD18 (as previously reported^3) were grown in LB medium supplemented with 100 μg/mL ampicillin. The next morning, 50 μL of these saturated cultures were used to inoculate 2.5 mL of LB medium containing 100 μg/mL ampicillin. Cultures were incubated at 37° C. with shaking at 250 rpm. At an OD600 of 0.4-0.5, cultures were induced with L-arabinose and left to grow for another 30 min. Then, the synthetic 6 substrate (10 mM stock solution in DMSO) or DMSO (vector control) was added to each culture to a final concentration of 50 μM, and incubated at 37° C. for 24 h. At the designated time point, the cultures were extracted with organic solvent and analyzed by LC-HRMS on a Phenomenex C18-A column (150×4.6 mm, 180 Å, 5 μm particle size, Agilent) with a water:acetonitrile (ACN) gradient containing 0.1% formic acid 0.7 mL/min: 1-2 min, 5% ACN; ramp to 98% ACN over 18 min; hold for 5 min at 100% ACN.

Setting [5] is: linearized pBR322 DNA (20 μM bp), 15 h.
Setting [6] is: 2 bp equiv, incubation 5 min to 15 h.
Setting [7] is: linearized pBR322 DNA (20 μM bp), 15 h, concentrations up to 500 μM.

For `C[C@H]1CCC(C2=C(CC(=O)NCc3nc(-c4nc(C(=O)NCCN(C)C)cs4)cs3)C3(CC3)NC2=O)=N1` [15a], the “extent of DNA damage, dose response” value in assay [1] (5 nM, 15 h (FIG. 17B)) is listed as “negligible”. For the same compound, the “extent of DNA alkylation as a function of time” value in assay [1] (1 μM, 0.1-15 h (FIG. 18C)) is “alkylation activity correlated approximately with the decrease in duplex stability”. Moreover, the “DNA damage, dose response” value in assay [1] (50 or 10 nM, 15 h (FIG. 17B)) is listed as “small amounts of DNA damage”. Further, the “DNA alkylation, dose response” value in assay [1] (concentrations as low as 100 nM, 15 h (FIG. 17B)) is given as “extensive DNA alkylation”. In addition, the DNA alkylation entry in assay [1] (setting [5]) is given as “extensively alkylated DNA”. In assay [1] (linearized pBR322 DNA, 15 h (FIG. 17A)), the “DNA alkylation activity relative to 15b” value is “significantly more active than the N-methylamide 15b”. Besides, in assay [2] (1 or 2 bp equiv, incubation 5 min, 1 h, 3 h, 6 h or 15 h), the “time dependence of the effect on melting temperature / duplex stability” value is given as “time-dependent effects on duplex stability; also recorded: Time-dependent modulation of the melting temperature”. The duplex stability result in assay [2] (longer incubations (3-15 h), 1 or 2 bp equiv) is listed as “duplex stability decreased”; in assay [2] (times less than 1 h, 1 or 2 bp equiv), “stabilization of the duplex was observed”. Moreover, the “increase in Tm” value in assay [2] (rligand/bp=2) worked out at 1.8 °C.

`CNC(=O)c1csc(-c2csc(CNC(=O)CC3=C(C4=N[C@@H](C)CC4)C(=O)NC34CC4)n2)n1` [15b]: the DNA alkylation entry in assay [1] (setting [5]) is reported as “extensively alkylated DNA”. Further, the “modulation of the melting temperature of calf thymus DNA” value in assay [2] (1 bp equiv, incubation 5 min, 3 h or 15 h) is “no significant modulation”; in assay [2] (setting [6]) it was “no significant modulation”.

Take `C[C@H]1CCC(C2=C(CC(=O)NCc3nc(-c4nc(C(=O)NCCCN(C)CCCNC(=O)c5csc(-c6csc(CNC(=O)CC7=C(C8=N[C@@H](C)CC8)C(=O)NC78CC8)n6)n5)cs4)cs3)C3(CC3)NC2=O)=N1` [15c]: the figures for the DNA cross-linking result in assay [1] (3 h) and in assay [1] (later timepoints (6 or 15 h)) were “a clear cross-linked band” and “this cross-linked band diminished”, respectively.

As to `C[C@H]1CCC(C2=C(CC(=O)NCc3nc(-c4nc(C(=O)NCCN(C)C)cs4)cs3)C(C)(C)NC2=O)=N1` [15d], the DNA alkylation activity entry in assay [1] (setting [7]) is on record as “did not alkylate DNA”.

Consider `C[C@H]1CCC(C2=C(CC(=O)N(C)Cc3nc(-c4nc(C(=O)NCCN(C)C)cs4)cs3)C3(CC3)NC2=O)=N1` [15j], for which, in assay [1] (10 or 1 μM, 15 h (FIG. 21B)), the “DNA alkylation / decomposition of the DNA” value is given as “extensive decomposition of the DNA”. The “DNA alkylation potency relative to lactam 19” value in assay [1] (15 h (FIG. 21B)) is “significantly more potent”.

`C[C@H](N)CCc1c2c(cc(=O)n1Cc1nc(-c3nc(C(=O)NCCN(C)C)cs3)cs1)C1(CC1)NC2=O` [17a]: the DNA alkylation activity entry in assay [1] (setting [7]) is listed as “neither of the pyridone derivatives 17a or 17b displayed measurable activity”. Besides, the “effect of increasing amounts on melting temperature of ctDNA” value in assay [2] (incubated with ctDNA for 3 h, 260 nm) is “dose-dependent increase in the melting temperature”. Moreover, the “increase in Tm” value in assay [2] (ratio of compound to base pairs of 4.0, incubated 3 h) is 3.8 °C; in assay [2] (rligand/bp=2), 2.8 °C.

Regarding `CNC(=O)c1csc(-c2csc(Cn3c(CC[C@H](C)N)c4c(cc3=O)C3(CC3)NC4=O)n2)n1` [17b], in assay [1] (setting [7]), the DNA alkylation activity result was “neither of the pyridone derivatives 17a or 17b displayed measurable activity”. Also, in assay [2] (setting [6]), the “modulation of the melting temperature of calf thymus DNA” value is on record as “no significant modulation”.

For the compound `C[C@@H](CCC(=O)C1=C(CC(=O)N(C)Cc2nc(-c3nc(C(=O)NCCN(C)C)cs3)cs2)C2(CC2)NC1=O)NC(=O)OC(C)(C)C` [compound 19], the DNA alkylation activity entry in assay [1] (500 μM, 15 h (FIG. 21B)) is reported as “weak DNA alkylation activity”.

For `CCCCCCCCCCCCCC(=O)N[C@H](CC(N)=O)C(=O)N[C@@H](C)CCc1c2c(cc(=O)n1Cc1nc(-c3nc(C(=O)O)cs3)cs1)C1(CC1)NC2=O` [precolibactin C (6)], the “substrate for ClbP” value in assay [3] is reported as “demonstrated to be a substrate for ClbP”. Besides, the “cleavage by ClbP” value in assay [4] was “converted to N-myristoyl-D-Asn and its corresponding colibactin by colibactin peptidase ClbP; also recorded: converted to N-myristoyl-D-Asn and its corresponding colibactin in a ClbP-dependent manner”.

These data come from patent US20190031650A1, “DNA ALKYLATION AND CROSS-LINKING AGENTS AS COMPOUNDS AND PAYLOADS FOR TARGETED THERAPIES” (YALE UNIVERSITY, priority 2016, published 2019).
